3 compounds from patent publication US20230399314A1, “CD73 INHIBITOR AND USE THEREOF” (WUHAN HUMANWELL INNOVATIVE DRUG RESEARCH AND DEVELOPMENT …, priority 2020, published 2023) can be followed below.

The term fraction unbound denotes the share of the substance not bound to proteins or other matrix. Usually EC50 stands for the concentration at which the effect is half-maximal. A higher EC50 goes with a need for much substance. The term Cmax denotes the maximum level reached in the sampled fluid or tissue. The Tmax is the time at which the peak concentration occurs. By half-life is commonly meant the time in which the quantity being followed falls by half. By clearance is commonly meant the rate of elimination divided by the concentration. Broadly, the IC50 is the concentration that gives 50% inhibition.

Series [1] concerns A375 melanoma. The experiment in a line: In vivo efficacy on A375 melanoma (PBMC + A375 cells in NCG mice). As to conditions: compound 40 mg/kg + anti PD-1 10 mg/kg; for Mean ± SEM (tumor size): in mm³ (unit assumed). On the procedure:
A375 cells in logarithmic growth phase were collected, cultured in Mitomycin C for 2 h, and washed three times with PBS. After 5 days of co-culture of PBMC and A375 cells, PBMC and freshly digested A375 cells were collected, 5×10^5 PBMC and 4×10^6 A375 cells were inoculated subcutaneously on the right side of NCG mice according to 0.2 mL/mouse (containing 50% Matrigel). After inoculation, the mice were randomly divided into a model group and an administration group according to body weight of the mice, tumor size and animal weight were measured and recorded before and during administration, and tumor sizes of the model group and the administration group were compared after treatment to determine the efficacy.

Series [2] in a line: Plasma protein binding by equilibrium dialysis, canine plasma. As to conditions: dog, 37° C. Type of series: in vitro ADME. The method, then: (§1) Plasma protein binding rates of the compounds were detected by equilibrium dialysis (HTDialysis, HTD 96b). The compound was diluted with DMSO to form a 0.5 mM stock solution, and the stock solution was diluted 25 times with a 0.05 M sodium phosphate buffer to form a 20 μM working solution. Plasma was placed in a new 96-well plate according to 380 μL/well, then the working solution was added to and uniformly mixed with the plasma according to 20 μL/well, the final concentration of the compound was 1 μM, and each well contained 0.2% DMSO.
(§2) 100 μL of 0.05 M sodium phosphate buffer was added to a receiving side of each dialysis chamber (HTD 96b), and 100 μL of plasma containing the compound was added to a supply side. The dialysis apparatus was closed with a plastic lid, and incubated with shaking at 37° C. for 5 h.
(§3) After the incubation was completed, 25 μL of sample was collected respectively from the supply side and the receiving side of the dialysis chamber, and placed in a new 96-well plate, an equal volume of blank plasma was added to and uniformly mixed with each sample on the supply side, an equal volume of 0.05 M sodium phosphate buffer was added to and uniformly mixed with each sample on the receiving side. 200 μL of acetonitrile solution containing the internal standard was added to each well, the 96-well plate was vortex-shaken at 600 rpm for 10 min, and centrifuged at 5,594 g for 15 min (Thermo Multifuge×3R), 50 μL of supernatant was transferred to a new 96-well plate, and the sample was mixed with 50 μL of ultrapure water and subjected to LC-MS/MS analysis.
(§4) A plasma protein binding rate and a fraction unbound in plasma were calculated according to the following formulas:
(§5) % binding rate=100×([supply side concentration]5h−[receiving side concentration]5h)/[supply side concentration]5h; and
(§6) % fraction unbound in plasma=100−% binding rate.
In general terms: In equilibrium dialysis free small molecules cross a membrane that holds back macromolecules.

A short description of series [3]: Plasma protein binding by equilibrium dialysis, mouse plasma. As to conditions: 37° C. Type of series: in vitro ADME. On the procedure:
as §1, §2, §3, §4, §5, §6

In series [4] the test system is Human CD4+ T cells. The series is described as follows: Relieving AMP-induced proliferation inhibition of human CD4+ T cells (CCK8). As to conditions: Homo sapiens, 120 h, AMP 0.3 mM, day 5. The format is cell-based. On the procedure: On day 1 of the experiment, CD4^+ T cells (Allcells Shanghai, PB009-2F-C) were thawed, and inoculated into two replicate wells according to 3×10^4 cells/well and 50 μL/well. The compound was diluted with a complete medium to form a stock solution (4×) of an appropriate concentration gradient, the compound solution was added to the above cells according to 50 μL/well, and the mixture was pre-incubated at 37° C. for 30 min. […] Meanwhile, a positive reference group (Human CD4^+ T+IL-2+CD3/CD28 beads) and a negative reference group (Human CD4^+ T+IL-2+CD3/CD28 beads+AMP) were set. AMP (Sigma; A1752-5G) was diluted with a complete medium to form an AMP solution (4×), the AMP solution was added to the above cells according to 50 μL/well, the final concentration was 0.3 mM, and the mixture was incubated at 37° C. On day 3 of the experiment, the AMP solution was added to the above plate according to 20 μL/well, and the final concentration was 0.3 mM. On day 5, the proliferation of the cells was detected by using a CCK8 kit (DojinDO; CK04).
Inhibition rates of the compound at different concentrations in relieving AMP-induced proliferation inhibition of CD4^+ T cells were calculated according to the following formula, the concentration of the compound was taken as the X-axis, the inhibition rate was taken as the Y-axis, and an EC50 value of the compound in relieving the AMP-induced proliferation inhibition of CD4^+ T cells was calculated by using Prism software.

Series [5] in a line: Pharmacokinetic test on dogs. The format is in vivo, male Beagle dogs. The conditions noted are these: male, Beagle, plasma, dog; for Vd: read-out: Vz. On the procedure:
(§7) In a pharmacokinetic test on mice, male ICR mice of 20 g to 25 g were used and fasted overnight. 3 mice were selected for orally intragastric administration (10 mg/kg). Before administration, and 15 min, 30 min, 1 h, 2 h, 4 h, 8 h, and 24 h after administration, blood was sampled from each mouse. Another 3 mice were selected for intravenous injection administration (3 mg/kg), and before administration, and 15 min, 30 min, 1 h, 2 h, 4 h, 8 h, and 24 h after administration, blood was sampled from each mouse. The blood sample was centrifuged at 6,800 g and 2 to 8° C. for 6 min, and plasma was collected and stored at −80° C. The plasma of each time point was vortex-mixed for 1 min with an acetonitrile solution containing the internal standard with a volume 3-5 times that of the plasma of each time point, and centrifuged at 13,000 rpm and 4° C. for 10 min, a supernatant was collected and mixed with water with a volume 3 times that of the supernatant, and an appropriate amount of the mixed solution was used for LC-MS/MS analysis. The main pharmacokinetic parameters were analyzed by using a WinNonlin 7.0 non-compartmental model.
In a pharmacokinetic test on dogs, male Beagle dogs of 8 to 10 kg were used and fasted overnight. 3 Beagle dogs were selected for orally intragastric administration (5 mg/kg). Another 3 Beagle dogs were selected for intravenous injection administration (1 mg/kg). Other operations were the same as the pharmacokinetic test on mice.

The nature of series [6]: Pharmacokinetic test on mice. The conditions noted are these: male, ICR, plasma, mouse; for AUC(0-t): read-out: AUC0-t; for Cmax: read-out: Cmax; for Tmax: read-out: Tmax; for Vd: read-out: Vz. Type of series: in vivo, male ICR mice. The method, then: as §7
Series [7] is described as follows: Plasma protein binding by equilibrium dialysis, human plasma. The format is in vitro ADME. As to conditions: 37° C. The method, then:
as §1, §2, §3, §4, §5, §6

For series [8], the target named is Human-CD73 enzyme (Homo sapiens (Human), UniProt P21589). The series is described as follows: In vitro inhibitory activity to recombinant human CD73 enzyme (ATP-GLO). The conditions noted are these: Human-CD73 0.1 μg/mL, AMP 100 μM. Type of series: biochemical. On the procedure:
Human-CD73 (Novoprotein; C446) was diluted with Tris-MgCl2 buffer to form a stock solution (3×), which was placed in a 96-well plate according to 20 μL/well to obtain a final concentration of 0.1 μg/mL. The compound was diluted with Tris-MgCl2 buffer to form a stock solution (3×) of an appropriate concentration gradient, the compound solution was added to the above 96-well plate according to 20 μL/well and uniformly mixed with the Human-CD73 solution, and the mixture was incubated at the room temperature for 30 min. Meanwhile, a positive reference group (without the compound) and a negative reference group (without CD73) were set. AMP (Sigma; A1752-5G) was diluted with Tris-MgCl2 buffer to form a stock solution (3×), which was added to the above 96-well plate according to 20 μL/well to obtain a final concentration of 100 μM, and the mixture was uniformly mixed and incubated at 37° C. for 60 min; ATP (Sigma; A7699-1G) was diluted with Tris-MgCl2 buffer to form a stock solution (7×), which was added to the above 96-well plate according to 10 μL/well to obtain a final concentration of 100 μM, and the mixture was uniformly mixed, incubated for 5 min, and tested by using an ATP-GLO kit (Promega; G7573).
Human-CD73 inhibition rates of the compound at different concentrations were calculated according to the following formula, the concentration of the compound was taken as the X-axis, the inhibition rate was taken as the Y-axis, and an IC50 value of the compound in inhibiting Human-CD73 was calculated by using Prism software.

Series [9] deals with CD73 bound to the surfaces of A375 cells (Homo sapiens (Human), UniProt P21589). The experiment in a line: Inhibitory activity to CD73 enzyme bound to the surfaces of human melanoma A375 cells. The format is cell-based. As to conditions: AMP 200 μM, 16 h. On the procedure: The compound was diluted with serum-free DMEM to form a stock solution (5×) of an appropriate concentration gradient, the compound solution was added to the cells in the above 96-well plate according to 20 μL/well, and the mixture was placed in an incubator and pre-incubated for 30 min.
A375-bound CD73 inhibition rates of the compound at different concentrations were calculated according to the following formula, the concentration of the compound was taken as the X-axis, the inhibition rate was taken as the Y-axis, and an IC50 value of the compound in inhibiting A375-bound CD73 was calculated by using Prism software.

Setting [10] is: po, orally intragastric 5 mg/kg.
Setting [11] is: po, orally intragastric 10 mg/kg.

Sequence of CD73 bound to the surfaces of A375 cells (P21589 27-574): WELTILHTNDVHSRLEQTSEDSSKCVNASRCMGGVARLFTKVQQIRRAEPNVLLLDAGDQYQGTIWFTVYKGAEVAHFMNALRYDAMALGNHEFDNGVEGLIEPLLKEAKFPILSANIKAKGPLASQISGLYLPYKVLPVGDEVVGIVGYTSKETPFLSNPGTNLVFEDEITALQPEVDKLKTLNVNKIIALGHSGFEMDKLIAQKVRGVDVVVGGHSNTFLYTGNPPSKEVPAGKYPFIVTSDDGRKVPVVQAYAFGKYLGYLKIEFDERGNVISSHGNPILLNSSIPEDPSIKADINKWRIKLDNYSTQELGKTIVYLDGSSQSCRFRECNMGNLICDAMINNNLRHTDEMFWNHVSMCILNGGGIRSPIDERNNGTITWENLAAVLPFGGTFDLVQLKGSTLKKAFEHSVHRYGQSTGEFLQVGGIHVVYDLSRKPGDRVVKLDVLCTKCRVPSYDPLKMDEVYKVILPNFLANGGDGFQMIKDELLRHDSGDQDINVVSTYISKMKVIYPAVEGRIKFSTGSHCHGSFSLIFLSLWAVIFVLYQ
Sequence of Human-CD73 enzyme (P21589 27-574): as above

`Cc1nnc(-c2c[nH]c(=O)[nH]c2=O)cc1[C@H]1C[C@@H]1C(C)C` [Reference compound 3, 5-(5-((1S,2R)-2-isopropylcyclopropyl)-6-methylpyridazin-3-yl)pyrimidine-2,4(1H,3H)-dione, reference compound]: in series [1], the “% TGI” value is reported as 41.52% and the “Mean ± SEM (tumor size)” value stood at 1149 ± 167.8. The same compound had a fraction unbound at 5 h, 1 μM in series [2] of 0.126. This compound returned a fraction unbound at 5 h, 1 μM in series [3] of 0.122. For the same compound, in series [4], the response was half-maximal at 341 nM (EC50). For the same compound, in series [5] (setting [10]), the AUC(0-t) came to 1540 ng·h/mL, the concentration peaked (Cmax) at 1200 ng/mL, the Tmax was 25.2 min and the half-life is 55.8 min. Moreover, in series [5] (intravenous injection 1 mg/kg), the AUC(0-t) amounted to 512 ng·h/mL, the clearance was 36 mL/min/kg, the half-life was 23.4 min and the Vd is 1.14 L/kg. Also, in [6] (setting [11]), the half-life is 71.4 min, the AUC(0-t) was determined as 1270 ng·h/mL, the Cmax worked out at 1270 ng/mL and the Tmax amounted to 19.8 min. Moreover, in [6] (intravenous injection 3 mg/kg), the clearance was 70 mL/min/kg, the half-life was 16.8 min, the AUC(0-t) was 730 ng·h/mL and the Vd was found to be 1.67 L/kg. The compound further returned a fraction unbound at 5 h, 1 μM in series [7] of 0.103.
For the compound `O=c1[nH]cc(-c2cc([C@H]3C[C@@H]3C(F)F)c(Cl)nn2)c(=O)[nH]1` [Reference compound 2, 5-(6-chloro-5-((1S,2S)-2-(difluoromethyl)cyclopropyl)pyridazin-3-yl)pyrimidine-2,4(1H,3H)-dione, reference compound], the fraction unbound at 5 h, 1 μM worked out at 0.177 in series [2], 0.261 in series [3] and 0.098 in [7]. Besides, the IC50 stood at 16.8 nM in [8] and 67.3 nM in series [9]. This compound gave an EC50 in series [4] of 93.7 nM. The AUC(0-t) in series [5] (setting [10]) was 9000 ng·h/mL; in series [5] (intravenous injection 1 mg/kg), 1560 ng·h/mL; in [6] (setting [11]), 5380 ng·h/mL; in [6] (intravenous injection 3 mg/kg), 2360 ng·h/mL. In addition, the Cmax in [5] (setting [10]) came to 3620 ng/mL; in [6] (setting [11]), 4540 ng/mL. The Tmax in [5] (setting [10]) came to 30 min; in series [6] (setting [11]) it was 25.2 min. For the same compound, the half-life is 198 min in series [5] (setting [10]), 82.2 min in series [5] (intravenous injection 1 mg/kg), 65.4 min in series [6] (setting [11]) and 75 min in series [6] (intravenous injection 3 mg/kg). Further, the clearance in series [5] (intravenous injection 1 mg/kg) is 10.8 mL/min/kg; in series [6] (intravenous injection 3 mg/kg) it was 22 mL/min/kg. The results for the Vd in series [5] (intravenous injection 1 mg/kg) and in series [6] (intravenous injection 3 mg/kg) were 1.33 L/kg and 2.4 L/kg, respectively.
On to `O=c1[nH]cc(-c2cc([C@H]3C[C@@H]3CF)c(Cl)nn2)c(=O)[nH]1` [Compound 1, 5-(6-chloro-5-((1S,2S)-2-(fluoromethyl)cyclopropyl)pyridazin-3-yl)pyrimidine-2,4(1H,3H)-dione], for which, in [1], the “% TGI” value is 63.68% and the “Mean ± SEM (tumor size)” value is given as 713.7 ± 89.22. This compound also had a fraction unbound at 5 h, 1 μM in series [2] of 0.245. Moreover, in [3], the unbound share (fraction unbound) at 5 h, 1 μM was found to be 0.474. The concentration giving a half-maximal response (EC50) in series [4] was determined as 71.9 nM. In addition, in series [5] (setting [10]), the AUC(0-t) was 16900 ng·h/mL, the concentration peaked (Cmax) at 5480 ng/mL, the time of peak concentration (Tmax) amounted to 70.2 min and the half-life is 160 min. In [5] (intravenous injection 1 mg/kg), the AUC(0-t) is 1460 ng·h/mL, the clearance was 12.2 mL/min/kg, the half-life is 56.4 min and the Vd came out at 0.99 L/kg. In series [9], the IC50 stood at 30.7 nM. Also, in series [6] (setting [11]), the half-life was 199 min, the AUC(0-t) came out at 5720 ng·h/mL, the Cmax was 4300 ng/mL and the Tmax turned out to be 25.2 min. The fraction unbound at 5 h, 1 μM in [7] worked out at 0.274.
